Measured values as given in patent US11713470B2, “Targeted gene therapies for pain and other neuro-related disorders” (University of Pittsburgh—Of the Commonwealth System of …, priority 2017, dated 2023).
“Also recorded” adds a separate entry of the source.

Legend:
PSAM-GlyR = target: T1, PSAM-GlyR (Homo sapiens, UniProt P23415+P36544, L141F); assay: Patch clamp electrophysiology in spinal cord slices of Tlx3^Cre mice injected with AAV8-Flex-PSAM-GlyR; assay type: tissue-based, mouse
T1 construct: plasmid from Addgene (Sternson); host or cells: mouse dorsal horn neurons transduced with Cre-dependent AAV2/8 (Tlx3^Cre, CCK^Cre or Calr^Cre mice)
Protocol: FIGS. 6A and 6B. Positive and negative controls for PSAM-GlyR and PSEM^89S. (a) Schematic of PSAM-GlyR construct with GFP reporter used to make AAV8-hSyn-Flex-PSAM-GlyR. Virus was injected into Tlx3^Cre mice for electrophysiological slice recordings. (b) Electrode impaling a GFP^+ cell (also shown as DI, image) in a transverse slice of the dorsal horn from a Tlx3^Cre mouse injected with AAV8-hSyn-Flex-PSAMGlyR virus. […] (e) Control for the specificity of α-BTX-Alexa647. Contralateral dorsal horn lacks staining for α-BTX-Alexa647. Calretinin (green in original); PKCγ. Scale bar=50 μm. Box indicates area of inset. (f) In mice lacking PSAM-GlyR, mechanical allodynia and heat hypersensitivity induced by the carrageenan pain model are not altered by injection of PSEM^89S (30 mg/kg, i.p.) (p>0.999, n=4) (g) Punctate and dynamic allodynia induced by CFA are also not altered by injection of PSEM^89S (p>0.999, n=6). (h) In the mice lacking PSAM-GlyR, punctate and dynamic allodynia induced by the sural-SNI model are not altered by injection of PSEM^89S (30 mg/kg, i.p.) ([…], n=6). Data are mean±standard error of the mean (SEM). ***P<0.001; ns=not significant (i.e. p>0.05)
Prior to assessing the role of the neurons in somatosensory behavior, the ability of PSAM-GlyR to inhibit excitatory interneurons in the dorsal horn was tested using electrophysiological recordings in spinal cord slices. AAV8-Flex-PSAM-GlyR was injected intraspinally into the dorsal horn of P16 Tlx3^Cre mice. In this mouse line, the recombinase is strictly expressed by excitatory neurons located throughout laminae I-III. Three weeks later, neuronal excitability was measured using patch clamp electrophysiology in spinal cord slices in the presence and absence of PSEM^89S (FIG. 6(a-d)). To identify PSAM-GlyR^+ neurons, we identified cells expressing green fluorescent protein (GFP), which is also encoded by the PSAM-GlyR viral construct (FIG. 6(a,b)). […] We also tested the effect of the ligand PSEM^89S on pain behavior in mice lacking the receptor (FIG. 6(f,h)).

[1] = target: T2, PSAM-GlyR in calretinin neurons in the dorsal horn lamina II (Homo sapiens, UniProt P23415+P36544, L141F); assay: Inflammatory pain models in Calr^Cre mice expressing PSAM-GlyR in the dorsal horn; assay type: in vivo, mouse; details: 30 mg/kg i.p.
T2 construct: plasmid from Addgene (Sternson); host or cells: mouse dorsal horn neurons transduced with Cre-dependent AAV2/8 (Tlx3^Cre, CCK^Cre or Calr^Cre mice)
From the text: Methods. Animals: All animals were kept on a standard 12:12 light/dark cycle in micro-isolator caging racks (Allentown Caging) with food and water provided ad libitum. Mouse strains obtained from Jackson Laboratories include C57Bl/6J (JAX #000664), Calr^Cre (JAX #010774) and CCK^Cre (JAX #012706). Adeno-associated viruses (AAV2/8) used in these experiments: hSyn-Flex-rev-PSAM^L141F-GlyR-IRES-eGFP (7^12 vg/ml) and hSyn-Flex-rev-PSAM^L141F,Y115F-GlyR-IRES-eGFP (1.7^13 vg/ml) were custom made by UNC Vector core based on plasmid material developed by Scott Sternson and provided by Addgene. The hSyn-Flex-rev-PSAM^L141F-GlyR-IRES-eGFP (7^12 vg/ml) was used in all experiments except FIG. 8 (e,f). For these experiments, hSyn-Flex-rev-PSAM^L141F,Y115F-GlyR-IRES-eGFP (1.7^13 vg/ml) was used. Methods including: intra-spinal virus injections, paw withdrawal threshold to von Frey filaments, to cotton swab, Hargreaves, pinprick and acute pain behaviors licking, guarding, flicking are all as previously described (Peirs, C. et al. Dorsal Horn Circuits for Persistent Mechanical Pain. Neuron 87, 797-812 (2015); Seal, R. P. et al. Injury-induced mechanical hypersensitivity requires C-low threshold mechanoreceptors. Nature 462, 651-655, (2009)); For paw withdrawal threshold to pressure: mice were lightly restrained by hand such that their rear legs were allowed to freely hang. Using a Pressure Application Measurement device (Ugo Basile) the hind paw was grasped between the experimenter's forefinger and thumb (with pressure transducer on the thumb), and force was slowly applied to the paw until the mouse struggled or flicked its limb (paw withdrawal threshold, PWT). The final force in grams was recorded. Each mouse was tested on the left and right paw for three trials with a ten-minute inter-trial interval between applications, and the three results averaged for each paw. Injury Models including incision, complete Freund's adjuvant, spared nerve injury tibial and sural models, carrageenan, methylglyoxal and multi-dose streptozotocin are as previously described (Peirs, C. et al. Dorsal Horn Circuits for Persistent Mechanical Pain. Neuron 87, 797-812 (2015); Seal, R. P. et al. Injury-induced mechanical hypersensitivity requires C-low threshold mechanoreceptors. Nature 462, 651-655, (2009); Decosterd, I. and Woolf, C. J. Spared nerve injury: an animal model of persistent peripheral neuropathic pain. Pain 87, 149-158 (2000); Bierhaus, A. et al. Methylglyoxal modification of Nav1.8 facilitates nociceptive neuron firing and causes hyperalgesia in diabetic neuropathy. […] Quantification and Statistical Analysis: all data are reported as mean±SEM. […]

T2 sequence (P36544+P23415 fused P36544:L141F): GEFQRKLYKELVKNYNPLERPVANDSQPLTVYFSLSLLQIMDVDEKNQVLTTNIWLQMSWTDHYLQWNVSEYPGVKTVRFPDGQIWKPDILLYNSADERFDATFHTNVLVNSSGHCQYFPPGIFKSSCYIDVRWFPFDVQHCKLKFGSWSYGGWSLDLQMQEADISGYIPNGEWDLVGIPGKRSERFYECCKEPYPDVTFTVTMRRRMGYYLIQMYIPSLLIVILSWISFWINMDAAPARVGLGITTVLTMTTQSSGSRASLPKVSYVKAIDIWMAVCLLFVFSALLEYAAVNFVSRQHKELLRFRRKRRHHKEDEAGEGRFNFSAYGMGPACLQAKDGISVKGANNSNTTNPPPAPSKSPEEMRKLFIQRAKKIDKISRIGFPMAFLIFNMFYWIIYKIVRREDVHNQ
T1 sequence (P36544+P23415 fused P36544:L141F): as above

Question: What does the source list for `COc1ccc(OC)c(C(=O)NC2CN3CCC2CC3)c1` (stereo not shown) [PSEM^89S]?
Answer: decrease of membrane potential (PSAM-GlyR; 30 μM PSEM^89S applied to spinal cord slices, GFP^+ neurons, n=3 cells from 2 mice): −7.3±3.4 mV; action potentials generated by current injection (PSAM-GlyR; 30 μM, GFP^+ cells): completely blocked; hyperpolarization on bath application (PSAM-GlyR; 30 μM, specifically in GFP-expressing cells): sustained hyperpolarization; mechanical allodynia (punctate), carrageenan model ([1]; 24 hours after carrageenan, p=0.0074): reverses; also recorded: significantly reversed; mechanical allodynia (punctate), CFA model ([1]; 5 days after CFA, ipsilateral hindpaw, p=0.0026): reverses; also recorded: complete reversal; dynamic mechanical allodynia, incision model ([1]; p=0.0001): reverses; punctate mechanical allodynia, incision model ([1]; p=0.0028): reverses
